Literature values as cited in patent US20240252431A1, “PULMONARY BIGUANIDE FORMULATIONS AND DELIVERY DEVICES” (Onconox Inc., priority 2021, published 2024).

Key:
[1] = tested on: lung fibrosis elicited by bleomycin; conditions: mouse bleomycin model; treatment starting three weeks after lung injury, continuing five weeks
[2] = tested on: radiation induced pneumonitis; conditions: in vivo

In the case of `CN(C)C(=N)N=C(N)N` [Metformin, metformin], the “effect on established lung fibrosis” value [1] is listed as “reverse established lung fibrosis” and the “effect on radiation induced pneumonitis” value [2] is listed as “protect against radiation induced pneumonitis”.
